Assay [1] deals with human acute monocytic leukemia cell line MV-4-11. Kind of assay: Assay 2: cell proliferation assay (ATP quantitation, CellTiter-Glo), MV-4-11. It counts as cell-based. As to conditions: MV-4-11 cells. As for the experimental part:
Potencies of inhibitor compounds against cell proliferation was assessed against the human acute monocytic leukemia cell line MV-4-11 (ATCC® CRL-9591™) based on ATP quantitation. MV-4-11 cells or toxicity control HL-60 cells (ATCC® CCL-240™) were incubated in 96-well tissue culture plates (1.67×10^4 cells in 200 μL culture media containing 10% FBS per well) with or without test compound for 72 h at 37° C., 5% CO2. After incubation, each well was mixed by pipetting and 95 μL from each well was transferred to a well in 96-well black OptiPlate® plates (PerkinElmer). An equal volume of CellTiter-Glo® Luminescent Cell Viability Assay reagent (Promega) was added to each well, followed by mixing for 5 min on an orbital plate shaker. Luminescence was measured on a Wallac EnVision 2104 Multilabel Reader (PerkinElmer) to quantitate ATP.

Assay [2] deals with T1, biotinylated wild-type menin and MLL-AF9 fusion protein (menin/MLL binding) (Homo sapiens, UniProt O00255).
T1 construct: made in house; host or cells: menin: E. coli; MLL-AF9-FLAG: HEK293 cells, used as cleared lysate
T1 sequence (O00255 1-610): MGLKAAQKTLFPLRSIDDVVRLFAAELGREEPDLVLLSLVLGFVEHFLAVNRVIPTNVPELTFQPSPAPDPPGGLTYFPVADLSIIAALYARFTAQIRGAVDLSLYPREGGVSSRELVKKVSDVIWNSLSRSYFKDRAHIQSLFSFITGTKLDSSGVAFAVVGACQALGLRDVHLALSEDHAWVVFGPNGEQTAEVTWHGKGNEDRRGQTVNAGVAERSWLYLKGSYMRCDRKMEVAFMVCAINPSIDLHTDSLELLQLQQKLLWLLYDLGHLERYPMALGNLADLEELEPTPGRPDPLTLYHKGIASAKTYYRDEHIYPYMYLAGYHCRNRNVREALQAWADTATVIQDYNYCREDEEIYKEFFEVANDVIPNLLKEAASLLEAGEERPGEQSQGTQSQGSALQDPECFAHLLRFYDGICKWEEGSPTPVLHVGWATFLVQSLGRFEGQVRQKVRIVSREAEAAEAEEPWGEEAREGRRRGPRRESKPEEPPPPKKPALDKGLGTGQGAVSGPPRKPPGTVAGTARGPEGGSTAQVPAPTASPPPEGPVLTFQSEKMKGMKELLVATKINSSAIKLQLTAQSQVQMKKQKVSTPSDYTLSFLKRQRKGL
Briefly: Assay 1: menin/MLL binding AlphaLISA assay, wild-type menin. As to conditions: Table 30; column head does not say wild-type or mutated menin. On the procedure:
Potencies of inhibitor compounds against menin/MLL binding were assessed by AlphaLISA assay using biotinylated (1) wild-type menin or (2) mutated menin (described in Huang et al, 2012, Nature, 482, 542-546) and MLL-AF9 fusion protein bearing a FLAG epitope at its C-terminus. Menin proteins were expressed in E. coli and covalently modified with biotin using EZ-Link™ Sulfo-NHS-Biotin (ThermoFisher Cat.No. 21217) according to manufacturer's protocol. MLL1-1,396 fused to AF91-92 and the C-terminal FLAG peptide was expressed in HEK293 cells and used as a lysate cleared at 21,000×g for 10 min.
Compounds (2 μL of solutions in DMSO) were dispensed in white 96-well half-area plates (Corning Cat.No. 3693) and incubated for 30 min at RT with 5 nM biotinylated menin and appropriate amount of MLL-AF9-FLAG lysate in 40 μL of 50 mM Tris-HCl buffer pH 7.4 containing 5% (v/v) DMSO, 50 mM NaCl, 0.01% (w/v) bovine serum albumin (BSA) and 1 mM DTT. To this incubation mixture, 40 μL of AlphaLISA anti-FLAG acceptor (PerkinElmer Cat.No. AL112C) and streptavidin donor (PerkinElmer Cat.No. 6760002) beads (10 μg/mL each) was added and incubation continued at RT for 60 min. Alpha (amplified luminescent proximity homogeneous assay) signal was measured on an Envision multi-label plate reader at the end of the incubation. All steps were conducted under dim fluorescent light.
These percent inhibition values were regressed against compound concentrations in the assay using four parameter logit non-linear curve fitting (XLFit, IDBS). The IC50 values were derived from the curve fitting as inflection points on the dose-response curves and are set out in Table 30 below.

pEC50, pIC50: −log10 of the molar value.

For the compound `CCN(C(=O)C(C)C)c1cc(F)ccc1Oc1cncnc1N1CC2(CCN(C[C@H]3CC[C@H](NC(=O)OC(C)(C)C)CC3)CC2)C1` [Example 84, tert-butyl ((1r,4r)-4-((2-(5-(2-(N-ethylisobutyramido)-4-fluorophenoxy)pyrimidin-4-yl)-2,7-diazaspiro[3.5]nonan-7-yl)methyl)cyclohexyl) carbamate], the pEC50 in assay [1] (Homo sapiens, MV4-11, 72 h) is greater than 7.00. This compound gave a pIC50 in assay [2] greater than 7.00.
On to `CC(C)c1ccccc1-c1cc(F)ccc1Oc1cnccc1N1CCC2(CCN(Cc3ccc4[nH]c(=O)[nH]c4c3)C2)C1` (centres unmarked) [Example 249, 5-((7-(3-((5-fluoro-2′-isopropyl-[1,1′-biphenyl]-2-yl)oxy)pyridin-4-yl)-2,7-diazaspiro[4.4]nonan-2-yl)methyl)-1,3-dihydro-2H-benzo[d]imidazol-2-one], for which, in assay [1] (Homo sapiens, MV4-11, 72 h), the pEC50 was 6.00 to 7.00. Besides, the pIC50 in assay [2] was greater than 7.00.
In turn, `CC1(C)C(=O)Nc2cc(CN3CCC4(CCN(c5ncncc5Oc5ccc(F)cc5OCC(F)(F)F)C4)C3)ccc21` (centres unmarked) [Example 182, 6-((7-(5-(4-fluoro-2-(2,2,2-trifluoroethoxy)phenoxy)pyrimidin-4-yl)-2,7-diazaspiro[4.4]nonan-2-yl)methyl)-3,3-dimethylindolin-2-one] showed a pEC50 in assay [1] (Homo sapiens, MV4-11, 72 h) of 6.00 to 7.00. This compound also showed a pIC50 in assay [2] greater than 7.00.
As for `CC(C)c1ncncc1-c1cc(F)ccc1Oc1cncnc1N1CC2(CN(CC3CCCC(F)(F)C3)C2)C1` (centres unmarked) [Example 232, 2-((3,3-difluorocyclohexyl)methyl)-6-(5-(4-fluoro-2-(4-isopropylpyrimidin-5-yl)phenoxy)pyrimidin-4-yl)-2,6-diazaspiro[3.3] heptane], in assay [1] (Homo sapiens, MV4-11, 72 h), the pEC50 is greater than 7.00. Besides, in assay [2], the negative logarithm of the IC50 (pIC50) was greater than 7.00.
In the case of `CC(C)C(=O)N(CC(N)=O)c1cc(F)ccc1Oc1cncnc1N1CCC2(CCN(Cc3ccc4[nH]c(=O)[nH]c4c3)C2)C1` (centres unmarked) [Example 73, N-(2-amino-2-oxoethyl)-N-(5-fluoro-2-((4-(7-((2-oxo-2,3-dihydro-1H-benzo[d]imidazol-5-yl)methyl)-2,7-diazaspiro[4.4]nonan-2-yl)pyrimidin-5-yl)oxy)phenyl)isobutyramide], in assay [1] (Homo sapiens, MV4-11, 72 h), the pEC50 is 6.00 to 7.00. The same compound had a negative-log IC50 (pIC50) in assay [2] greater than 7.00.
Turning to `CC(O)c1ccccc1-c1cc(F)ccc1Oc1cncnc1N1CCC2(CCN(Cc3ccc4[nH]c(=O)[nH]c4c3)C2)C1` (single isomer, unassigned) [Example 60D, 5-((7-(5-((5-fluoro-2′-(1-hydroxyethyl)-[1,1′-biphenyl]-2-yl)oxy)pyrimidin-4-yl)-2,7-diazaspiro[4.4]nonan-2-yl)methyl)-1H-benzo[d]imidazol-2(3H)-one], the pEC50 in assay [1] (72 h) is greater than 7.00.
Compound `CC(O)c1ccccc1-c1cc(F)ccc1Oc1cncnc1N1CCC2(CCN(Cc3ccc4[nH]c(=O)[nH]c4c3)C2)C1` (single isomer, unassigned) [Example 60B, 5-((7-(5-((5-fluoro-2′-(1-hydroxyethyl)-[1,1′-biphenyl]-2-yl)oxy)pyrimidin-4-yl)-2,7-diazaspiro[4.4]nonan-2-yl)methyl)-1H-benzo[d]imidazol-2(3H)-one] showed a pEC50 in assay [1] (72 h) greater than 7.00.
Compound `CNC(=O)c1csc(N2CCC3(CCN(c4ncncc4Oc4ccc(F)cc4-c4ccc(C#N)cc4C4CC4)C3)C2)n1` (centres unmarked) [Example 57, 2-(7-(5-((4′-cyano-2′-cyclopropyl-5-fluoro-[1,1′-biphenyl]-2-yl)oxy)pyrimidin-4-yl)-2,7-diazaspiro[4.4]nonan-2-yl)-N-methylthiazole-4-carboxamide] had a pIC50 in assay [2] greater than 7.00.
As for `CC(O)c1ccccc1-c1cc(F)ccc1Oc1cncnc1N1CCC2(CCN(Cc3ccc4[nH]c(=O)[nH]c4c3)C2)C1` (single isomer, unassigned) [Example 60C, 5-((7-(5-((5-fluoro-2′-(1-hydroxyethyl)-[1,1′-biphenyl]-2-yl)oxy)pyrimidin-4-yl)-2,7-diazaspiro[4.4]nonan-2-yl)methyl)-1H-benzo[d]imidazol-2(3H)-one], the pEC50 in assay [1] (72 h) was greater than 7.00.
For `CN(C)C(=O)c1csc(N2CCC3(CCN(c4ncncc4Oc4ccc(F)cc4-c4ccc(C#N)cc4C4CC4)C3)C2)n1` (centres unmarked) [Example 58, 2-(7-(5-((4′-cyano-2′-cyclopropyl-5-fluoro-[1,1′-biphenyl]-2-yl)oxy)pyrimidin-4-yl)-2,7-diazaspiro[4.4]nonan-2-yl)-N,N-dimethylthiazole-4-carboxamide], the pIC50 in assay [2] is 6.00 to 7.00.
Still for that read-out and setting: with `O=c1[nH]c2ccc(CN3CCC4(CCN(c5ncncc5Oc5ccc(F)cc5-c5ccccc5C5CC5)C4)C3)cc2[nH]1` (centres unmarked) [Example 49, 5-((7-(5-((2′-cyclopropyl-5-fluoro-[1,1′-biphenyl]-2-yl)oxy)pyrimidin-4-yl)-2,7-diazaspiro[4.4]nonan-2-yl)methyl)-1H-benzo[d]imidazol-2(3H)-one] the figure was greater than 7.00; with `CC(C)S(=O)(=O)Nc1cc(F)ccc1Oc1cncnc1N1CC2(CCN(C[C@H]3CC[C@H](NS(C)(=O)=O)CC3)CC2)C1` [Example 74, N-(5-fluoro-2-((4-(7-(((1r,4r)-4-(methylsulfonamido)cyclohexyl)methyl)-2,7-diazaspiro[3.5]nonan-2-yl)pyrimidin-5-yl)oxy)phenyl)propane-2-sulfonamide], greater than 7.00; with `CC(C)n1nccc1-c1cc(F)ccc1Oc1cnc(Cl)nc1N1CCC2(CCN(Cc3ccc4[nH]c(=O)[nH]c4c3)C2)C1` (centres unmarked) [Example 46, 5-((7-(2-chloro-5-(4-fluoro-2-(1-isopropyl-1H-pyrazol-5-yl)phenoxy)pyrimidin-4-yl)-2,7-diazaspiro[4.4]nonan-2-yl)methyl)-1,3-dihydro-2H-benzo[d]imidazol-2-one], 6.00 to 7.00.
The compound `CC(C)N(C(=O)c1cc(F)ccc1Oc1cncnc1N1CCC2(CCC(N)(Cc3ccc(C#N)cc3)C2)C1)C(C)C` (single isomer, unassigned) [Example 22B, 2-((4-(7-amino-7-(4-cyanobenzyl)-2-azaspiro[4.4]nonan-2-yl)pyrimidin-5-yl)oxy)-5-fluoro-N,N-diisopropylbenzamide] showed a pIC50 in assay [2] greater than 7.00.
As to `CCOC(=O)c1csc(N2CCC3(CCN(c4ncncc4Oc4ccc(F)cc4-c4ccc(C#N)cc4C4CC4)C3)C2)n1` (centres unmarked) [Example 55, Ethyl 2-(7-(5-((4′-cyano-2′-cyclopropyl-5-fluoro-[1,1′-biphenyl]-2-yl)oxy)pyrimidin-4-yl)-2,7-diazaspiro[4.4]nonan-2-yl)thiazole-4-carboxylate], the pIC50 in assay [2] was no more than 6.00.
Same read-out and setting: with `CC(C)N(C)C(=O)c1cc(F)ccc1Oc1cncnc1N1CCC2(CCN(Cc3cccc(N4CCOC4=O)c3)C2)C1` (centres unmarked) [Example 61, 5-fluoro-N-isopropyl-N-methyl-2-((4-(7-(3-(2-oxooxazolidin-3-yl)benzyl)-2,7-diazaspiro[4.4]nonan-2-yl)pyrimidin-5-yl)oxy)benzamide] the figure was 6.00 to 7.00; with `CC(C)c1ncncc1-c1cc(F)ccc1Oc1cncnc1N1CCC2(CC(NCc3ccc(F)cc3)CO2)C1` (centres unmarked) [Example 20, 7-(5-(4-fluoro-2-(4-isopropylpyrimidin-5-yl)phenoxy)pyrimidin-4-yl)-N-(4-fluorobenzyl)-1-oxa-7-azaspiro[4.4]nonan-3-amine], 6.00 to 7.00; with `CC(C)NS(=O)(=O)c1cc(F)ccc1Oc1cncnc1N1CC2(CN(CC3CCOCC3)C2)C1` [Example 32, 5-fluoro-N-isopropyl-2-((4-(6-((tetrahydro-2H-pyran-4-yl)methyl)-2,6-diazaspiro[3.3]heptan-2-yl)pyrimidin-5-yl)oxy)benzenesulfonamide], greater than 7.00.

Values taken from patent publication US12312359B2 (Vitae Pharmaceuticals, LLC, priority 2016, dated 2025).
